Source: patent US20240158392A1 (Janssen Biotech, Inc., priority 2021, published 2024)

What follows are molecules tested against T1, SIK2 (Homo sapiens, UniProt Q9H0K1) (assay: SIK2 Enzymatic Assay Version 1 (ADP Glo)). Settings: enzyme 0.6 nM, 160 μM ATP and 140 μM HDAC5tide (each 2× final concentration); 30 minutes pre-incubation, 4 hours; ADPGlo luminescence; read-out: SIK2 ADP Glo IC50 (μM) (Test Example 1).
Format: biochemical
Description: All steps were performed at room temperature. Compounds were pre-plated onto an assay plate using an Echo acoustic dispenser (Labcyte, E550 or E555) at 20 nL per well. Enzyme prepared in Assay Buffer at 0.6 nM (2× final concentration) was added at 2 μL per well using the Multidrop Combi (Thermo Fisher—used for all additions in this assay) to the assay plate, spun for 1 min at 800-850 rpm (Allegra 6KR Beckman Coulter centrifuge), and incubated with compound for 30 minutes.
One column of wells was dedicated to a no-peptide negative control (containing only ATP). ADPGlo Reagent (prepared and aliquoted as per manufacturer instructions) was then added at 2 μL per well, spun and incubated for 40 min. ADPGlo Detection (prepared and aliquoted as per manufacturer instructions) was added at 2 μL per well to the assay plate, which was spun and incubated for at least 30 min. The plate was then read on the Pherastar (BMG Labtech) using a luminescence read. Gain was set by the 0.1 mM concentration of ADP wells in the ADP/ATP standard curve plate generated as per manufacturer instructions.

T1 sequence (Q9H0K1 whole entry, species assumed): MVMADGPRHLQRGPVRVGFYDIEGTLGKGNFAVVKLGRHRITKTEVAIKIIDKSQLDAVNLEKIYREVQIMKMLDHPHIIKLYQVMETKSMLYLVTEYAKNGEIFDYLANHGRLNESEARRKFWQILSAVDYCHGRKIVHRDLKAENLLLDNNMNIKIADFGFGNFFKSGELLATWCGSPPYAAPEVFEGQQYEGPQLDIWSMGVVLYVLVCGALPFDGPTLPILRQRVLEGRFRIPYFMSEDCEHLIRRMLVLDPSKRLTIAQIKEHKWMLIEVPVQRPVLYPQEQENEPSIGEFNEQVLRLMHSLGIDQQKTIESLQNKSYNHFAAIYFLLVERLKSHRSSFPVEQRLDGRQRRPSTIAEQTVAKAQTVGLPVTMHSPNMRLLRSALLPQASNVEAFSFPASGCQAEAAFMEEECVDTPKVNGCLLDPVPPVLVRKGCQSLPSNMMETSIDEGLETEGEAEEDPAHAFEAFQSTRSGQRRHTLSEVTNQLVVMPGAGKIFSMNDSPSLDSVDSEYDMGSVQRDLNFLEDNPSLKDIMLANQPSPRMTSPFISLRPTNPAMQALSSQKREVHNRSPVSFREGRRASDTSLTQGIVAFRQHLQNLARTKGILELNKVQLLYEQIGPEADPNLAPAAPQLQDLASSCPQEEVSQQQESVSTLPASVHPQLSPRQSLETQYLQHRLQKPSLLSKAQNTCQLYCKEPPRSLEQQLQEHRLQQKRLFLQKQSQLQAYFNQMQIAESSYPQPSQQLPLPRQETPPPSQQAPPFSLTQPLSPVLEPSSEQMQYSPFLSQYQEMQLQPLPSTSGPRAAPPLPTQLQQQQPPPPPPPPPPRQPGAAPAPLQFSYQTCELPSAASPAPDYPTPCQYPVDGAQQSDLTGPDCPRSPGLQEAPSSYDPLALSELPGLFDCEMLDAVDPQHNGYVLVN

**Q.** With `Cn1cc(Nc2cnc(C#N)cc2-c2ccn3nc(NC(=O)C4CC4)cc3c2)cn1` [Example 79, N-[5-[2-cyano-5-[(1-methylpyrazol-4-yl)amino]-4-pyridyl]pyrazolo[1,5-a]pyridin-2-yl]cyclopropanecarboxamide] as the molecule, how does the IC50 read?
**A.** Its IC50 is 0.389 µM.

**Q.** How did the IC50 turn out when `COc1c(C)cccc1-c1ccn2nc(NC(=O)C3CC3)cc2c1` [Example 747, N-[5-(2-methoxy-3-methyl-phenyl)pyrazolo[1,5-a]pyridin-2-yl]cyclopropanecarboxamide] was run?
**A.** Its IC50 is 0.0312 µM.

**Q.** How did the IC50 turn out when `COc1cccc(C)c1-c1ccn2nc(NC(=O)C3CC3)cc2c1` [Example 746, N-[5-(2-methoxy-6-methyl-phenyl)pyrazolo[1,5-a]pyridin-2-yl]cyclopropanecarboxamide] was run?
**A.** Its IC50 is 0.271 µM.

**Q.** For `CC(C)(C)OC(=O)COc1cnc(C#N)cc1-c1ccn2nc(NC(=O)C3CC3)cc2c1` [Example 55, tert-butyl 2-[[6-Cyano-4-[2-(cyclopropanecarbonylamino)pyrazolo[1,5-a]pyridin-5-yl]-3-pyridyl]oxy]acetate], which IC50 is on record?
**A.** Its IC50 is 0.0096 µM.

**Q.** Which IC50 does the source give for `N#Cc1cc(-c2ccn3nc(NC(=O)C4CC4)cc3c2)c(OC[C@@H]2CC[C@@H](N)C2)cn1` [Example 22, N-[5-[5-[[(1R,3R)-3-aminocyclopentyl]methoxy]-2-cyano-4-pyridyl]pyrazolo[1,5-a]pyridin-2-yl]cyclopropanecarboxamide] here?
**A.** Its IC50 is 0.00121 µM.

**Q.** With `N#Cc1cc(-c2ccn3nc(NC(=O)C4CC4)cc3c2)c(OCc2ccnc(C(F)(F)F)c2)cn1` [Example 62, N-[5-[2-cyano-5-[[2-(trifluoromethyl)-4-pyridyl]methoxy]-4-pyridyl]pyrazolo[1,5-a]pyridin-2-yl]cyclopropanecarboxamide] as the molecule, how does the IC50 read?
**A.** The IC50 was greater than 5 µM.

**Q.** How did the IC50 turn out when `COc1cc(C)ccc1-c1ccn2nc(NC(=O)C3CC3)cc2c1` [Example 745, N-[5-(2-methoxy-4-methyl-phenyl)pyrazolo[1,5-a]pyridin-2-yl]cyclopropanecarboxamide] was run?
**A.** The IC50 was 3.52 µM.

**Q.** For `CC(C)(O)C1CN(c2cnc(C#N)cc2-c2ccn3nc(NC(=O)C4CC4)cc3c2)C1` [Example 74, N-[5-[2-cyano-5-[3-(1-hydroxy-1-methyl-ethyl)azetidin-1-yl]-4-pyridyl]pyrazolo[1,5-a]pyridin-2-yl]cyclopropanecarboxamide], which IC50 is on record?
**A.** Its IC50 is 0.00654 µM.

**Q.** `CN(C)CC1CN(c2cnc(C#N)cc2-c2ccn3nc(NC(=O)C4CC4)cc3c2)C1` [Example 72, N-[5-[2-cyano-5-[3-(dimethylaminomethyl)azetidin-1-yl]-4-pyridyl]pyrazolo[1,5-a]pyridin-2-yl]cyclopropanecarboxamide] was tested. Which IC50 did it give?
**A.** Its IC50 is 0.15 µM.

**Q.** How did the IC50 turn out when `N#Cc1cc(-c2ccn3nc(NC(=O)C4CC4)cc3c2)c(NCC2CC2)cn1` [Example 76, N-[5-[2-cyano-5-(cyclopropylmethylamino)-4-pyridyl]pyrazolo[1,5-a]pyridin-2-yl]cyclopropanecarboxamide] was run?
**A.** Its IC50 is 0.0255 µM.

**Q.** `CN1CCOC[C@@H](Oc2cnc(C#N)cc2-c2ccn3nc(NC(=O)C4CC4)cc3c2)C1` [Example 26, N-[5-[2-cyano-5-[[(6S)-4-methyl-1,4-oxazepan-6-yl]oxy]-4-pyridyl]pyrazolo[1,5-a]pyridin-2-yl]cyclopropanecarboxamide] was tested. Which IC50 did it give?
**A.** Its IC50 is 0.0123 µM.

**Q.** For `COc1ccc(C)cc1-c1ccn2nc(NC(=O)C3CC3)cc2c1` [Example 744, N-[5-(2-methoxy-5-methyl-phenyl)pyrazolo[1,5-a]pyridin-2-yl]cyclopropanecarboxamide], which IC50 is on record?
**A.** The IC50 was 0.289 µM.

**Q.** For `CN1CC[C@H](CNc2cnc(C#N)cc2-c2ccn3nc(NC(=O)C4CC4)cc3c2)C1` [Example 71, N-[5-[2-cyano-5-[[(3R)-1-methylpyrrolidin-3-yl]methylamino]-4-pyridyl]pyrazolo[1,5-a]pyridin-2-yl]cyclopropanecarboxamide], which IC50 is on record?
**A.** The IC50 was 0.0577 µM.

**Q.** How did the IC50 turn out when `COc1ccncc1-c1ccn2nc(NC(=O)C3CC3)cc2c1` [Example 751, N-[5-(4-methoxy-3-pyridyl)pyrazolo[1,5-a]pyridin-2-yl]cyclopropanecarboxamide] was run?
**A.** Its IC50 is 0.198 µM.

**Q.** Which IC50 does the source give for `CO[C@H]1C[C@@H](Oc2cnc(C)cc2-c2ccn3nc(NC(=O)C4CC4)cc3c2)C1` [Example 147, cis-N-[5-[5-(3-methoxycyclobutoxy)-2-methyl-4-pyridyl]pyrazolo[1,5-a]pyridin-2-yl]cyclopropanecarboxamide] here?
**A.** The IC50 was 0.0124 µM.

**Q.** Which IC50 does the source give for `Cn1ccc(Nc2cnc(C#N)cc2-c2ccn3nc(NC(=O)C4CC4)cc3c2)n1` [Example 77, N-[5-[2-cyano-5-[(1-methylpyrazol-3-yl)amino]-4-pyridyl]pyrazolo[1,5-a]pyridin-2-yl]cyclopropanecarboxamide] here?
**A.** Its IC50 is 0.242 µM.

**Q.** For `CN1CCC[C@H](Oc2cnc(C#N)cc2-c2ccn3nc(NC(=O)C4CC4)cc3c2)C1` [Example 65, N-[5-[2-cyano-5-[[(3S)-1-methyl-3-piperidyl]oxy]-4-pyridyl]pyrazolo[1,5-a]pyridin-2-yl]cyclopropanecarboxamide], which IC50 is on record?
**A.** The IC50 was 0.00871 µM.

**Q.** With `Cc1cc(-c2ccn3nc(NC(=O)C4CC4)cc3c2)c(O[C@@H]2C[C@H]3CC[C@@H](C2)N3C)cn1` [Example 140, N-(5-(2-methyl-5-(((1R,3r,5S)-8-methyl-8-azabicyclo[3.2.1]octan-3-yl)oxy)pyridin-4-yl)pyrazolo[1,5-a]pyridin-2-yl)cyclopropanecarboxamide] as the molecule, how does the IC50 read?
**A.** Its IC50 is 0.0195 µM.

The molecules below were run against T1, SIK2 (assay: SIK2 Enzymatic Assay High Version 2 (High ATP)). Settings: not given.
Format: biochemical
In short: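 At room temperature, enzyme (6 nM, 2× final) was preincubated with compound for 30 min, then 6 mM ATP and 400 μM HDAC5tide (both 2× final) were added for 2 h. ADP formed was measured by ADP-Glo Max (2 h reagent, 1 h detection) using luminescence.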

**Q.** For `Cc1cc(-c2ccn3nc(NC(=O)C4CC4)cc3c2)c(OC[C@@H]2CCCN2C)cn1` [Example 572, N-[5-[2-methyl-5-[[(2S)-1-methylpyrrolidin-2-yl]methoxy]-4-pyridyl]pyrazolo[1,5-a]pyridin-2-yl]cyclopropanecarboxamide], which IC50 is on record?
**A.** The IC50 was 0.0787 µM.

**Q.** `Cc1cc(-c2ccn3nc(Nc4cn(C)nn4)cc3c2)c(O[C@H]2C[C@H]3COC[C@@H](C2)N3)cn1` [Example 380, 5-[2-methyl-5-[[(1R,5S,7s)-3-oxa-9-azabicyclo[3.3.1]nonan-7-yl]oxy]-4-pyridyl]-N-(1-methyltriazol-4-yl)pyrazolo[1,5-a]pyridin-2-amine] was tested. Which IC50 did it give?
**A.** The IC50 was less than 0.000847 µM.

**Q.** How did the IC50 turn out when `CC(=O)N1[C@@H]2COC[C@H]1C[C@@H](Oc1cnc(C)cc1-c1ccn3nc(NC(=O)C4CC4)cc3c1)C2` [Example 339, N-[5-[5-[[(1S,5R)-9-acetyl-3-oxa-9-azabicyclo[3.3.1]nonan-7-yl]oxy]-2-methyl-4-pyridyl]pyrazolo[1,5-a]pyridin-2-yl]cyclopropanecarboxamide] was run?
**A.** Its IC50 is 0.00231 µM.

**Q.** With `CN1[C@@H]2COC[C@H]1C[C@@H](Oc1ccc(C(F)F)cc1-c1ccn3nc(NC(=O)C4CC4)cc3c1)C2` [Example 482, N-[5-[5-(difluoromethyl)-2-[[(1R,5S)-9-methyl-3-oxa-9-azabicyclo[3.3.1]nonan-7-yl]oxy]phenyl]pyrazolo[1,5-a]pyridin-2-yl]cyclopropanecarboxamide] as the molecule, how does the IC50 read?
**A.** The IC50 was 0.00424 µM.

**Q.** For `COc1cc(Nc2cc3cc(-c4cc(C)ncc4O[C@H]4C[C@H]5COC[C@@H](C4)N5)ccn3n2)cc(OC)c1C(=O)NC(C)C` [Example 340, N-isopropyl-2,6-dimethoxy-4-[[5-[2-methyl-5-[[(1S,5R)-3-oxa-9-azabicyclo[3.3.1]nonan-7-yl]oxy]-4-pyridyl]pyrazolo[1,5-a]pyridin-2-yl]amino]benzamide], which IC50 is on record?
**A.** Its IC50 is less than 0.000847 µM.

**Q.** Which IC50 does the source give for `Cc1cc(-c2ccn3nc(Nc4cn(C)nc4F)cc3c2)c(O[C@H]2C[C@H]3COC[C@@H](C2)N3C)cn1` [Example 119, N-(3-fluoro-1-methyl-1H-pyrazol-4-yl)-5-(2-methyl-5-(((1R,5S,7s)-9-methyl-3-oxa-9-azabicyclo[3.3.1]nonan-7-yl)oxy)pyridin-4-yl)pyrazolo[1,5-a]pyridin-2-amine] here?
**A.** Its IC50 is 0.00127 µM.

Same assay, conditions: enzyme 6 nM, 6 mM ATP and 400 μM HDAC5tide (each 2× final concentration); 30 minutes pre-incubation, 2 hours; ADP-Glo Max luminescence; read-out: SIK2 high ATP IC50 (μM) (Test Example 2)

**Q.** How did the IC50 turn out when `COc1cc(Nc2cc3cc(-c4cc(C)ncc4O[C@H]4CC[C@H](O)CC4)ccn3n2)cc(OC)c1` [Example 645, (1r,4r)-4-((4-(2-((3,5-dimethoxyphenyl)amino)pyrazolo[1,5-a]pyridin-5-yl)-6-methylpyridin-3-yl)oxy)cyclohexan-1-ol] was run?
**A.** Its IC50 is 0.325 µM.

**Q.** For `Cc1cc(Nc2cc3cc(-c4cc(OC(F)F)ncc4OC[C@@H]4CNCCO4)ccn3n2)nc(C)n1` [Example 502, 5-[2-(difluoromethoxy)-5-[[(2S)-morpholin-2-yl]methoxy]-4-pyridyl]-N-(2,6-dimethylpyrimidin-4-yl)pyrazolo[1,5-a]pyridin-2-amine], which IC50 is on record?
**A.** Its IC50 is 0.00682 µM.

**Q.** How did the IC50 turn out when `Cc1cc(-c2ccn3nc(NC(=O)C4CC4)cc3c2)c(OCC2(C#N)CCNC2)cn1` (single isomer, unassigned) [Example 210, (*S)—N-[5-[5-[(3-cyanopyrrolidin-3-yl)methoxy]-2-methyl-4-pyridyl]pyrazolo[1,5-a]pyridin-2-yl]cyclopropanecarboxamide] was run?
**A.** Its IC50 is 0.00307 µM.

**Q.** Which IC50 does the source give for `CNc1nc(C)cc(Nc2cc3cc(-c4cc(OC(F)F)ncc4OCC(C)(C)C#N)ccn3n2)n1` [Example 676, 3-[[6-(difluoromethoxy)-4-[2-[[6-methyl-2-(methylamino)pyrimidin-4-yl]amino]pyrazolo[1,5-a]pyridin-5-yl]-3-pyridyl]oxy]-2,2-dimethyl-propanenitrile] here?
**A.** Its IC50 is 0.108 µM.
